Assay results from patent US9670242B2, “Tetracyclic anthraquinone derivatives” (Tianjin Hemay Bio-Tech Co., Ltd, priority 2012, dated 2017).

Tests used:
DU-145 cells = assay: DU-145 cell growth inhibition test (MTT assay); type: cell-based; conditions: 72 h
Procedure: DU-145 Cell Growth Inhibition Test (MTT Assay)
(§1) II. Reagents and Consumable Materials
Culture medium: 90% EMEM+10% FBS (fetal calf serum); Pancreatin (0.25% (w/v) solution was formulated with PBS, 0.53 mM of EDTA was added in the formulation); PBS; 96-well culture plate.
(§2) 1. A plate (10 cm) of cells in logarithmic growth phase that were normally cultured was collected;
(§3) 2. The culture solution was sucked out. The plate was washed with 5 mL of PBS once or twice;
(§4) 3. PBS was sucked out. 1.5 mL of 0.25% pancreatin was added to the plate to infiltrate the cells for 1 min;
(§5) 4. The culture plate was placed in an incubator. Digestion was carried out for about 1 min at 37° C.;
(§6) 5. 3 mL of complete culture solution was added to the culture plate to stop the digestion. The cells were carefully scoured with micropipette (1 mL) to give a uniform cell suspension. The suspension was implanted into a 96-well cell culture disc by 4000 cells/100 μL per well. The culture plate was incubated overnight under 5% CO2 at 37° C. In day 2, 100 μL of culture solution comprising a compound was added in each well. The plate was further incubated for 72 h under 5% CO2 at 37° C.;
(§7) 6. The culture solution was sucked out;
7. 100 μL of serum-free culture solution containing 0.5 mg/mL MTT was added in each well. The plate was incubated for 3 h;
(§8) 8. The culture solution was carefully sucked out;
(§9) 9. 100 μL of DMSO was added in each well and vibrated to dissolve;
(§10) 10. OD values were determined at 490 nM.
(§11) IV. Results and Treatments
(§12) 1. Calculation of Relative Inhibition Ratio The inhibition ratio of a compound on cell growth=(PC−n)/(PC−NC)×100%
(§13) PC: OD values of cells after normal growth in control wells without a compound;
(§14) n: OD values of cells after growth in test wells with a compound;
(§15) NC: Background OD values of blank wells without a compound and cells.

B16 cells = assay: B16 cell growth inhibition test (MTT assay); type: cell-based, mouse; conditions: 72 h
Procedure: B16 Cell Growth Inhibition Test (MTT Assay)
as §1
Culture medium: 90% RPMI1640+10% FBS (fetal calf serum); Pancreatin (0.25% (w/v) solution was formulated with PBS, 0.53 mM of EDTA was added in the formulation); PBS; 96-well culture plate.
as §2, §3, §4, §5
as §6, with “2500” for “4000”
as §7
7. 100 μl of serum-free culture solution containing 0.5 mg/mL MTT was added in each well. The plate was incubated for 3 h;
as §8, §9, §10, §11, §12, §13, §14, §15

MCF-7 cells = assay: MCF-7 cell growth inhibition test (SRB assay); type: cell-based, human; conditions: 73 h
Procedure: MCF-7 Cell Growth Inhibition Test (SRB Assay)
as §1
Culture medium: 90% EMEM+10% FBS; Pancreatin (0.25% (w/v) solution was formulated with PBS, 0.53 mM of EDTA was added in the formulation); PBS; 96-well culture plate.
as §2, §3
3. 1.5 mL of 0.25% pancreatin was added to the plate to infiltrate the cells;
4. The pancreatin was sucked out. The culture plate was placed in an incubator. Digestion was carried out for about 3 min at 37° C.;
as §6, with “5. 4” for “5. 3”, “uniform single” for “uniform”, “culture plate” for “culture disc”, “by 10000” for “by 4000”, “for 73” for “for 72”
6. The culture solution was sucked out. 100 uL of TCA fixed cells which were diluted to 10% were added to each well. The plate was kept in a refrigerator for 1 h at 4° C.
7. TCA stationary liquid was sucked out. Each well was washed with 150 μL of ddH2O five times;
8. After the stationary liquid was cleansed, the plate was dried in the air at the room temperature;
9. 60 μL of SRB staining solution was added in each well. The well was stained for 15 min at the room temperature;
10. The SRB staining solution was sucked out. Each well was washed with 150 μL of 1% glacial acetic acid five times;
11. After the SRB staining solution was cleansed, the plate was dried in the air at the room temperature;
12. 100 μL of 10 mM Tris was added in each well. The plate was vibrated to dissolve out SRB;
13. OD values were determined at 570 nM.
as §11
1. Calculation of Relative Inhibition Ratio The inhibition ratio of a compound on cell growth=(PC−n)/(PC−NC)×100% […]

BxPc-3 cells = assay: BxPc-3 cell growth inhibition test (MTT assay); type: cell-based, human; conditions: growth inhibition at 2000 nM, 70 h
Method in brief: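 BxPC-3 human pancreatic cancer cells at 5000 per well in RPMI-1640 with 10% FBS were treated with compound from day 2 for 70 h at 37 °C, 5% CO2. Viability was measured by MTT (0.5 mg/mL, 3 h) with DMSO solubilisation and OD 490 nm. Inhibition ratio = (PC−n)/(PC−NC)×100%.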

SK-OV-3 cells = assay: SK-OV-3 cell growth inhibition test (MTT assay); type: cell-based, human; conditions: growth inhibition at 667 nM, 69 h
Method in brief: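 Human ovarian SK-OV-3 cells, 4000 per well in McCoy's 5A with 10% FBS, rested overnight, then grown 69 h with compound at 37 °C, 5% CO2. MTT (0.5 mg/mL, 3 h), DMSO solubilisation, OD at 490 nm; inhibition ratio computed against untreated and blank wells.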

SMILES | IC50 (DU-145 cells) | IC50 (B16 cells) | IC50 (MCF-7 cells) | Inhibition Ratio (%) (BxPc-3 cells) | Inhibition Ratio (%) (SK-OV-3 cells)
COc1cccc2c1C(=O)c1c(O)c3c(c(O)c1C2=O)CC(O)(C(=O)COC(=O)CCC(=O)O)CC3OC1CC(n2cccc2)C(O)C(C)O1 (stereo not shown) [Compound A, 3′-pyrrolyldoxorubicin-14-oxo-succinic acid monoester, reference compound] | 99 nM | 32 nM | 785 nM |  | 
CC(=O)O.COc1cccc2c1C(=O)c1c(O)c3c(c(O)c1C2=O)CC(O)(C(=O)COC(=O)CCC(=O)NCCCN1CCN(C)CC1)CC3O[C@H]1C[C@H](n2cccc2)[C@H](O)[C@H](C)O1 (stereo partly drawn) [Example 81, 10-((3′-(pyrrol-1-yll)-2′,3′,6′-trideoxy-alphal-l-lyxo-hexylpyranyl)oxy)-7,8,9,10-tetrahydro-6,8,11-trihydroxy-13-oxo-14-(4-((3-(4-methylpiperazin-1-yl)propyl)amino)-4-oxo-butyrato)-1-methoxy-5,12-naphthalenedione acetate] |  |  | 225 nM | 80.7% | 56.4%
COc1cccc2c1C(=O)c1c(O)c3c(c(O)c1C2=O)CC(O)(C(=O)COC(=O)CCC(=O)NCCOCCO)CC3OC1CC(n2cccc2)C(O)C(C)O1 (stereo not shown) [Example 62] | 34 nM | 3 nM |  | 82.5% | 63.6%
